Test results reported in patent publication US12692239B2, “Methods and compositions for targeting Tregs using CCR8 inhibitors” (Nanjing Immunophage Biomedical Co., Ltd., priority 2020, dated 2026).
Counter-ions that a name gives are not always drawn.

Target: CCR8 (Homo sapiens, UniProt P51685)
Experiment: Tango assay (Tango-CCR8-Gal4-CHO-K1 cells, CCL1-stimulated, ONE-Glo luminescence)
Conditions: Tango Assay IC50, Inhibition of CCR8 Tango cell in vitro

Sequence of CCR8 (P51685 whole entry, the tested form may be a part): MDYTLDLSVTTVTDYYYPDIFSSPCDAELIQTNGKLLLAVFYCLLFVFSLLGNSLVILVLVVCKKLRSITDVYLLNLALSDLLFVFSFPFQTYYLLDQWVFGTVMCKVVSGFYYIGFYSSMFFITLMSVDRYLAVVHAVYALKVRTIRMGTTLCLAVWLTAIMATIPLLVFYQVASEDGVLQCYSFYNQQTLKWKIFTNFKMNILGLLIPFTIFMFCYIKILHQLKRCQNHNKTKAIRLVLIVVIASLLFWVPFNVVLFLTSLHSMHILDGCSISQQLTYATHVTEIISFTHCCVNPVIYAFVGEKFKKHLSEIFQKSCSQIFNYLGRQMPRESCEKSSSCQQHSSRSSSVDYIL

- IC50: 9 nM
Compound: Cc1ccccc1C(=O)Nc1c(C)cc(S(=O)(=O)N[C@H](C)C2CCNCC2)cc1Cl [Compound 180A, (R)-N-(2-chloro-6-methyl-4-(N-(1-(piperidin-4-yl)ethyl)sulfamoyl)phenyl)-2-methylbenzamide hydrochloride]
